In publication PMC9231138, “Dihydrotanshinone I Enhances Cell Adhesion and Inhibits Cell Migration in Osteosarcoma U−2 OS Cells through CD44 and Chemokine Signaling” (Molecules, 2022):

Experiments:
U−2 OS cells = experiment: Cell cycle distribution by flow cytometry; assay type: cell-based, human; conditions: 24 h, mean ± SD
Description: The cell cycle is a key regulator of cell survival and the repair signal network. It has direct effects on multiple cell processes, including cell proliferation, DNA repair, apoptosis, and cell migration. Thus, it was further analyzed by flow cytometry. As shown in Table 2 and Figure 5A–E, after treatment with DS−1 at doses of 0, 2.5, 5.0, and 7.5 µM for 24 h, the distribution of the cell cycle was measured and the proportion of the G0/G1 phase was 54.70 ± 2.21%, 61.07 ± 2.04%, 65.20 ± 4.35%, and 65.65 ± 1.83%, respectively. In addition, the proportion of U−2 OS cells at the G0/G1 phase increased with the increase in the DS−1 concentration (Figure 5A–E), implying possible cell cycle arrest at the G0/G1 phase.
Figure 5 DS−1 regulated the cell cycle of U−2 OS cells. (A–D) Cell cycle of U−2 OS cells was retained in the G0/G1 phase. U−2 OS cells were treated with DS−1 at 0, 2.5, 5.0, and 7.5 µM for 24 h, and the cell cycle ratio was measured by flow cytometry; the cell cycle distribution is shown in Table 2. (E) Histogram of cell cycle distribution after U−2 OS cells were treated with DS−1. (F) Heatmap of the expression of genes relating to cell cycle in the transcriptome results. (G–K) In U−2 OS cells treated with DS−1 at concentrations of 0, 2.5, 5.0, and 7.5 μM, RNA was extracted and analyzed by RT-PCR, and the changes in CDK2, cyclin D1, cyclin E1, and p21 mRNA are presented in the histogram. (L) Cyclin D1 and cyclin E1 protein relative expression was analyzed by Western blot. Values are the average of three independent experiments, * p < 0.05, ** p < 0.01, *** p < 0.005. TEXT PRINTED IN THE PICTURE: (A) DS-1: G1(54.88%) (0 μM); S(19.57%) (0 μM); G2(23.84%) (0 μM) | (B) DS-1: G1(60.37%) (2.5 μM); S(18.70%) (2.5 μM); G2(19.44%) (2.5 μM) | (C) DS-1: G1(65.10%) (5.0 μM); S(16.87%) (5.0 μM); G2(16.41%) (5.0 μM) | (D) DS-1: G0G1(65.65%) (7.5 μM); S(14.20%) (7.5 μM); G2M(19.60%) (7.5 μM) DOUBTS OF THE COPYIST ABOUT THIS PICTURE: The label DS-1 is printed only in panel L ("DS-1(μM)"); panels A-D print only the concentration, no substance label / Panel A (0 μM) is the untreated state; its values are given with the 0 μM heading as condition / All gate percentages in panels A-D are printed very small and blurred; 3, 5, 6, 8 and 9 cannot be told apart with certainty / A, G1: 54.88% or 54.89% / 54.68% / A, S: 19.57% or 19.67% / A, G2: 23.84% or 23.64% / B, G1: 60.37% or 60.31% / 80.37% / B, S: 18.70% or 16.70% / B, G2: 19.44% or 18.44% / C, G1: 65.10% or 65.16% / 63.10% / C, S: 16.87% or 16.67% / 18.87% / C, G2: 16.41% or 18.41% / D, G0G1: 65.65% or 65.85% / 66.65% / D, S: 14.20% or 14.26% / D, G2M: 19.60% or 19.80% / 19.66%

CD44 = CD44 expression by immunofluorescence; assay type: cell-based, human; conditions: DS−1 2.5, 5.0, and 7.5 µM for 24 h
Description: Figure 7 DS−1 enhanced U−2 OS cells’ adhesion. (A) The morphological changes of U−2 OS cells treated with/without DS−1. Cells were treated with 0 and 7.5 μM DS−1 for 24 h, washed with PBS, and digested with trypsin at 25 °C under a microscope, and photos were taken every 30 s. The percentages of digested cells are recorded in (B). (C) Heatmap of genes related to the adherens’ junction in the control group and DS−1 group. (D) U−2 OS cells were treated with 0 and 7.5 μM DS−1 for 24 h, and the expression of CD44 was observed by immunofluorescence. (E,F) CD44 and GAPDH were analyzed by Western blot and calculated by Image J. (G) The relative expression of 4 kinds of MT-MMPs was analyzed by the transcriptome, as shown in the heatmap. (H) After being treated with DS−1, the relative expression of MT-MMP-1 was verified by RT-PCR. Values are the average of three independent experiments, * p < 0.05, ** p < 0.01, *** p < 0.005.
Coverslip preparation: we cultured U−2 OS cells on sterile glass coverslips in 24-well plates and then treated them with DS−1 at different concentrations.
Fixation and staining: We washed the cells with PBS 3 times and fixed the cells with 200 μL 4% paraformaldehyde/PBS solution at 4 °C for 15 min. We then rinsed 3 times with PBS and permeabilized with 200 μL 0.2% TritonX-100 at room temperature for 30 min. […]

With Cc1cccc2c3c(ccc12)C1=C(C(=O)C3=O)[C@@H](C)CO1 [DS−1, 15,16-Dihydrotanshinone I] the “proportion of cells in G0/G1 phase” value (U−2 OS cells; DS−1 2.5 µM) was 61.07 ± 2.04%, the “proportion of cells in G2/M phase” value (U−2 OS cells; DS−1 2.5 µM) was 18.65 ± 3.50 and the “proportion of cells in S phase” value (U−2 OS cells; DS−1 2.5 µM) was 20.10 ± 2.07. The “proportion of cells in G0/G1 phase” value (U−2 OS cells; DS−1 5.0 µM) was 65.20 ± 4.35%, the “proportion of cells in G2/M phase” value (U−2 OS cells; DS−1 5.0 µM) was 14.92 ± 4.67 and the “proportion of cells in S phase” value (U−2 OS cells; DS−1 5.0 µM) was 19.55 ± 3.08. For the same compound, the “proportion of cells in G0/G1 phase” value (U−2 OS cells; DS−1 7.5 µM) was 65.65 ± 1.83%, the “proportion of cells in G2/M phase” value (U−2 OS cells; DS−1 7.5 µM) was 19.60 ± 1.40 and the “proportion of cells in S phase” value (U−2 OS cells; DS−1 7.5 µM) was 14.20 ± 0.40. The CD44 expression (CD44) was “significantly increased”.
